The record followed here is patent US20130296278A1, “Diazeniumdiolate Derivatives” (Merck Sharp & Dohme Corp., priority 2011, published 2013).

By half-life is commonly meant the time in which the quantity being followed falls by half. Higher therefore signals slow loss.

A short description of this series: Rate of NO release (UV absorbance decay at 248 nm in pH 7.4 buffer). It is filed as physicochemical. The note with it: 0.25 mM diazeniumdiolate in 100 mM pH 7.4 phosphate buffer, 22° C., absorbance at 248 nm; t½=ln(2)/k. On the procedure:
Compounds of the invention were evaluated for the rate of NO release using the following protocol described below.
The method described by Maragos, C. M, et al. Med. Chem. 1991, 34, 3242-3247, was followed. A 100 mM solution of pH 7.4 buffer was prepared by dissolving 626 mg of NaH2PO4.H2O and 4155 mg of Na2HPO4.7H2O in 200 mL of water. The 0.01 M solution of the individual diazeniumdiolate was prepared by dissolving the sodium diazeniumdiolate in 0.01 M sodium hydroxide solution. All solutions used were kept at room temperature. The cuvette incubator was set at 22° C. 25 μL of the 0.01 M diazeniumdiolate solution was added to a cuvette, followed by dilution with 975 μL of pH 7.4 buffer to obtain a 0.25 (25 uL of 0.01 M diluted to 1000 ul will be 0.25 mM) mM solution. The cuvette was inserted into the UV spectrometer, and its absorbance at λ=248 nm was acquired every 3 seconds.
The general first-order rate equation is: […]
The method of Kezdy, F. J.; Jaz, J.; Bruylants, A. Bull. Soc. Chim. Belg. 1958, 67, 687-706, later elaborated by Schwartz, L. M.; Gelb, R. I. Anal. Chem. 1978, 50, 1592-1594, was used to analyze the data without measuring A∞. Two equations are obtained when the measurement At is made at t and At+Δt is made at t+Δt. Dividing these two equations and rearranging the resultant equation, we arrive at
At=At+Δte^−k!+A∞(1−e^kΔt)
Plotting At against At+Δt would yield a straight line with k=−ln(slope)/Δt, A∞=intercept/(1−slope). As a result, t½=ln(2)/k.
Consider `CCCN(/[N+]([O-])=N/[O-])C(C)(C)C.[Na+]` [Example 1, Sodium 1-(N-tert-butyl-N-propylamino)diazen-1-ium-1,2-diolate], for which the half-life at 0.25 mM was 1.45 min.
Consider `C=CCN(/[N+]([O-])=N/[O-])C(C)(C)C.[Na+]` [Example 2, Sodium 1-(N-text-butyl-N-allylamino)diazen-1-ium-1,2-diolate], for which the half-life at 0.25 mM was 3.17 min.
The result for `CC(C)(C)N(CCO)/[N+]([O-])=N/[O-].[Na+]` [Example 3, Sodium 1-[N-tert-butyl-N-(2′-hydroxyethyl)amino]diazen-1-ium-1,2-diolate] reads 3.42 min.
